In PubChem BioAssay AID256 (DTP/NCI, 2004):
Values joined by “and” are separate entries in the source; they are usually repeats but may differ in a detail not shown here. Equal values may be shown once. Inconclusive results and toxic doses are left out.

Tested on: CD2F1 mice, L1210 leukemia ip, survival T/C
Assay: NCI In Vivo Anticancer Drug Screen. Data for tumor model L1210 Leukemia (intraperitoneal) in CD2F1 (CDF1) mice
Settings: higher = longer survival
Outline: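 Read-out first: treated-group measurement over vehicle-control measurement, expressed as a ratio. Animals bore a transplanted tumor line and were dosed with compound or vehicle.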

[1] = endpoint: mean survival time, dose: 12.5 mg/kg/injection, schedule: Q01DX009 (ip), vehicle: saline
[2] = endpoint: mean survival time, dose: 25.0 mg/kg/injection, schedule: Q01DX009 (ip), vehicle: saline
[3] = endpoint: mean survival time, dose: 100.0 mg/kg/injection, schedule: Q01DX001 (ip), vehicle: saline
[4] = endpoint: mean survival time, dose: 200.0 mg/kg/injection, schedule: Q01DX001 (ip), vehicle: saline
[5] = endpoint: mean survival time, dose: 400.0 mg/kg/injection, schedule: Q01DX001 (ip), vehicle: saline
[6] = endpoint: mean survival time, dose: 100.0 mg/kg/injection, schedule: Q04DX003 (ip), vehicle: saline with Tween-80
[7] = endpoint: mean survival time, dose: 200.0 mg/kg/injection, schedule: Q04DX003 (ip), vehicle: saline with Tween-80
[8] = endpoint: mean survival time, dose: 400.0 mg/kg/injection, schedule: Q04DX003 (ip), vehicle: saline with Tween-80
[9] = endpoint: mean survival time, dose: 50.0 mg/kg/injection, schedule: Q01DX009 (ip), vehicle: saline with Tween-80
[10] = endpoint: mean survival time, dose: 100.0 mg/kg/injection, schedule: Q01DX009 (ip), vehicle: saline with Tween-80
[11] = endpoint: mean survival time, dose: 200.0 mg/kg/injection, schedule: Q01DX009 (ip), vehicle: saline with Tween-80
[12] = endpoint: mean survival time, dose: 100.0 mg/kg/injection, schedule: Q01DX001 (ip), vehicle: saline with Tween-80
[13] = endpoint: mean survival time, dose: 200.0 mg/kg/injection, schedule: Q01DX001 (ip), vehicle: saline with Tween-80
[14] = endpoint: mean survival time, dose: 400.0 mg/kg/injection, schedule: Q01DX001 (ip), vehicle: saline with Tween-80
[15] = endpoint: mean survival time, dose: 50.0 mg/kg/injection, schedule: Q01DX009 (ip), vehicle: Klucel (hydroxypropylcellulose) (HPC)
[16] = endpoint: mean survival time, dose: 100.0 mg/kg/injection, schedule: Q01DX009 (ip), vehicle: Klucel (hydroxypropylcellulose) (HPC)
[17] = endpoint: mean survival time, dose: 200.0 mg/kg/injection, schedule: Q01DX009 (ip), vehicle: Klucel (hydroxypropylcellulose) (HPC)
[18] = endpoint: mean survival time, dose: 400.0 mg/kg/injection, schedule: Q01DX009 (ip), vehicle: saline with Tween-80
[19] = endpoint: mean survival time, dose: 100.0 mg/kg/injection, schedule: Q04DX003 (ip), vehicle: saline
[20] = endpoint: mean survival time, dose: 200.0 mg/kg/injection, schedule: Q04DX003 (ip), vehicle: saline
[21] = endpoint: mean survival time, dose: 400.0 mg/kg/injection, schedule: Q04DX003 (ip), vehicle: saline

CCCCCCn1ncc(=O)[nH]c1=O
T/C [1]: 101 % of control and 102 % of control (2×)
T/C [2]: 93 % of control and 98 % of control and 101 % of control
T/C (endpoint: mean survival time, dose: 200.0 mg/kg/injection, schedule: Q01DX009 (ip), vehicle: saline): 96 % of control

O=S(=O)(O)NC1CCCCC1
T/C [2]: 96 % of control
T/C (endpoint: mean survival time, dose: 50.0 mg/kg/injection, schedule: Q01DX009 (ip), vehicle: saline): 95 % of control
T/C (endpoint: mean survival time, dose: 100.0 mg/kg/injection, schedule: Q01DX009 (ip), vehicle: saline): 91 % of control and 93 % of control

O=S(=O)(O)c1ccc(-c2c3nc(c(-c4ccc(S(=O)(=O)O)cc4)c4ccc([nH]4)c(-c4ccc(S(=O)(=O)O)cc4)c4nc(c(-c5ccc(S(=O)(=O)O)cc5)c5ccc2[nH]5)C=C4)C=C3)cc1
T/C [3]: 108 % of control
T/C [4]: 108 % of control
T/C [5]: 113 % of control

CC(C)(C)C1CC(=O)N(c2ccccc2)N1 (stereo not given)
T/C [6]: 106 % of control
T/C [7]: 98 % of control
T/C [8]: 98 % of control

COc1cc(Cl)ccc1NC(=O)Nc1ccc(C(=O)O)cc1
T/C [9]: 95 % of control
T/C [10]: 95 % of control
T/C [11]: 91 % of control

c1ccc(N/N=C(/c2ccccc2)c2ccccn2)cc1
T/C [12]: 103 % of control
T/C [13]: 111 % of control
T/C [14]: 105 % of control

CC1CC(C)(C)NC(CCC2CCCCC23OCCO3)O1 (stereo not given)
T/C [12]: 107 % of control
T/C [13]: 105 % of control
T/C [14]: 97 % of control

OC(Cc1cnc2ccccc2n1)(C(F)(F)F)C(F)(F)F
T/C [6]: 94 % of control
T/C [7]: 98 % of control
T/C [8]: 103 % of control

Cc1ccc([N+](=O)[O-])cc1NC(=O)N1CCC(C)CC1
T/C [15]: 98 % of control
T/C [16]: 96 % of control
T/C [17]: 101 % of control

O=S(=O)(Cc1ccccc1)CS(=O)(=O)Cc1ccccc1
T/C [12]: 98 % of control
T/C [13]: 97 % of control
T/C [14]: 86 % of control

N=c1c2ncn(C3OC(CO)C(O)C3O)c2ncn1N (stereo not given)
T/C (endpoint: mean survival time, dose: 50.0 mg/kg/injection, schedule: Q01DX005 (ip), vehicle: water): 101 % of control
T/C (endpoint: mean survival time, dose: 100.0 mg/kg/injection, schedule: Q01DX005 (ip), vehicle: water): 101 % of control
T/C (endpoint: mean survival time, dose: 200.0 mg/kg/injection, schedule: Q01DX005 (ip), vehicle: water): 114 % of control

C1CCN(NC2=NCCO2)CC1
T/C (endpoint: mean survival time, dose: 6.25 mg/kg/injection, schedule: Q01DX009 (ip), vehicle: saline): 101 % of control
T/C [1]: 98 % of control
T/C [2]: 98 % of control

CCC1C(=O)NC(=O)NC1=O
T/C [10]: 96 % of control
T/C [6]: 98 % of control
T/C [11]: 94 % of control
T/C [7]: 94 % of control
T/C [18]: 93 % of control
T/C [8]: 96 % of control

CCOC(=O)C(C)C(C)(O)c1ccccc1 (stereo not given)
T/C [6]: 97 % of control
T/C [7]: 97 % of control
T/C [8]: 98 % of control

O=S1C2C3CC(C4C=CCC43)C2N1c1ccccc1 (stereo not given)
T/C [12]: 92 % of control
T/C [10]: 97 % of control
T/C [13]: 95 % of control
T/C [11]: 97 % of control
T/C [14]: 90 % of control
T/C [18]: 94 % of control

CC1(C)C2CCC1(C(=O)O)CC2
T/C [9]: 100 % of control
T/C [10]: 100 % of control
T/C [6]: 92 % of control
T/C [11]: 97 % of control
T/C [7]: 95 % of control

CN(C)C(=S)NNC(=O)c1ccc(Cl)cc1
T/C (endpoint: mean survival time, dose: 25.0 mg/kg/injection, schedule: Q01DX001 (ip), vehicle: saline with Tween-80): 98 % of control

CCCCOC1CCC(O)C2CCCCC12 (stereo not given)
T/C [6]: 105 % of control
T/C [7]: 96 % of control
T/C [8]: 104 % of control

CCS(=O)(=O)Nc1ccc(Nc2c3ccccc3nc3ccccc23)c(OC)c1
T/C (endpoint: mean survival time, dose: 5.0 mg/kg/injection, schedule: Q01DX009 (ip), vehicle: saline): 156 % of control

CC1OC(n2cnc3c(NC(=O)c4ccccc4)ncnc32)C(O)C2OC12 (stereo not given)
T/C (endpoint: median survival time, dose: 12.5 mg/kg/injection, schedule: Q01DX005 (ip), vehicle: alkali diluted with water): 106 % of control
T/C (endpoint: median survival time, dose: 25.0 mg/kg/injection, schedule: Q01DX005 (ip), vehicle: alkali diluted with water): 102 % of control
T/C (endpoint: median survival time, dose: 50.0 mg/kg/injection, schedule: Q01DX005 (ip), vehicle: alkali diluted with water): 108 % of control
T/C (endpoint: median survival time, dose: 100.0 mg/kg/injection, schedule: Q01DX005 (ip), vehicle: alkali diluted with water): 100 % of control
T/C (endpoint: median survival time, dose: 200.0 mg/kg/injection, schedule: Q01DX005 (ip), vehicle: alkali diluted with water): 101 % of control

COc1cc(-c2[nH]c(=S)[nH]c(=O)c2CCO)cc(OC)c1OC
T/C [6]: 98 % of control
T/C [7]: 98 % of control
T/C [8]: 91 % of control

COc1ccc2nc3c(C)c4ccn(O)cc4c(C)c3c2c1
T/C (endpoint: mean survival time, dose: 25.0 mg/kg/injection, schedule: Q04DX003 (ip), vehicle: water): 106 % of control
T/C (endpoint: mean survival time, dose: 50.0 mg/kg/injection, schedule: Q04DX003 (ip), vehicle: water): 111 % of control
T/C (endpoint: mean survival time, dose: 100.0 mg/kg/injection, schedule: Q04DX003 (ip), vehicle: water): 114 % of control
T/C (endpoint: mean survival time, dose: 178.0 mg/kg/injection, schedule: Q04DX003 (ip), vehicle: other): 105 % of control
T/C (endpoint: mean survival time, dose: 266.0 mg/kg/injection, schedule: Q04DX003 (ip), vehicle: other): 103 % of control
T/C (endpoint: mean survival time, dose: 400.0 mg/kg/injection, schedule: Q04DX003 (ip), vehicle: other): 102 % of control
T/C (endpoint: mean survival time, dose: 600.0 mg/kg/injection, schedule: Q04DX003 (ip), vehicle: other): 103 % of control

CC(C)(C)C(=O)/C(O)=C\c1ccccc1
T/C [3]: 105 % of control
T/C [4]: 100 % of control
T/C [5]: 98 % of control

O=Nn1c2ccccc2c2ccccc21
T/C [15]: 90 % of control
T/C [16]: 98 % of control
T/C [17]: 102 % of control

CC(C#N)(Nc1ccccc1)c1ccco1 (stereo not given)
T/C (endpoint: mean survival time, dose: 6.25 mg/kg/injection, schedule: Q01DX009 (ip), vehicle: other): 102 % of control
T/C (endpoint: mean survival time, dose: 6.25 mg/kg/injection, schedule: Q04DX003 (ip), vehicle: other): 94 % of control
T/C (endpoint: mean survival time, dose: 12.5 mg/kg/injection, schedule: Q01DX009 (ip), vehicle: other): 100 % of control
T/C (endpoint: mean survival time, dose: 12.5 mg/kg/injection, schedule: Q04DX003 (ip), vehicle: other): 95 % of control
T/C (endpoint: mean survival time, dose: 25.0 mg/kg/injection, schedule: Q01DX009 (ip), vehicle: other): 94 % of control
T/C (endpoint: mean survival time, dose: 25.0 mg/kg/injection, schedule: Q04DX003 (ip), vehicle: other): 106 % of control
T/C (endpoint: mean survival time, dose: 100.0 mg/kg/injection, schedule: Q01DX009 (ip), vehicle: other): 90 % of control
T/C [19]: 103 % of control
T/C (endpoint: mean survival time, dose: 200.0 mg/kg/injection, schedule: Q01DX009 (ip), vehicle: other): 94 % of control
T/C [20]: 101 % of control
T/C [21]: 94 % of control

O=S(=O)(O)c1ccc(Nc2ccccc2)cc1
T/C [10]: 105 % of control
T/C [19]: 104 % of control
T/C [11]: 97 % of control
T/C [20]: 106 % of control
T/C [18]: 103 % of control
T/C [21]: 100 % of control

O=C(Nc1cc(Cl)ccc1Cl)c1ccc(Cl)cc1Cl
T/C [9]: 92 % of control
T/C [10]: 87 % of control
T/C [6]: 90 % of control
T/C [11]: 92 % of control
T/C [7]: 88 % of control

C[N+]1(C)CCC(=O)CC1
T/C [10]: 101 % of control

Cc1cccc(N2C(=O)CSC2=S)c1
T/C [6]: 92 % of control
T/C [7]: 88 % of control
T/C [8]: 95 % of control

c1ccc2c(c1)ncc1cc3c(cc12)[nH]c1ccccc13
T/C (endpoint: mean survival time, dose: 100.0 mg/kg/injection, schedule: Q01DX001 (ip), vehicle: other): 96 % of control
T/C (endpoint: mean survival time, dose: 200.0 mg/kg/injection, schedule: Q01DX001 (ip), vehicle: other): 101 % of control
T/C (endpoint: mean survival time, dose: 400.0 mg/kg/injection, schedule: Q01DX001 (ip), vehicle: other): 104 % of control

[O]=[Mo]
T/C [19]: 107 % of control

O=C1C2C(C(=O)N1c1ccc([N+](=O)[O-])cc1)C1c3ccccc3C2C2CCCCN21 (stereo not given)
T/C (endpoint: mean survival time, dose: 100.0 mg/kg/injection, schedule: Q01DX001 (ip), vehicle: Klucel (hydroxypropylcellulose) (HPC)): 93 % of control
T/C (endpoint: mean survival time, dose: 200.0 mg/kg/injection, schedule: Q01DX001 (ip), vehicle: Klucel (hydroxypropylcellulose) (HPC)): 101 % of control
T/C (endpoint: mean survival time, dose: 400.0 mg/kg/injection, schedule: Q01DX001 (ip), vehicle: Klucel (hydroxypropylcellulose) (HPC)): 100 % of control
